Molecular target: T1, Histamine H3 receptor (Cavia porcellus, UniProt Q9JI35)
Test: Histamine H3 Radioligand Binding Assay - Guinea Pig Ileum ([3H]-R-α-methylhistamine)
Design: The cortex was dissected, weighed and homogenised in ice-cold 20 mM Hepes-NaOH buffer; from tissue; host or cells: guinea pig brain cortex membranes
Conditions: guinea pig ileum longitudinal muscle myenteric plexus membranes; 3 nM [3H]-R-α-methylhistamine; typical variance 0.12 log units; read-out: pKI (binding assay) - ileum (converted)
Method: Histamine H3 Radioligand Binding Assay—Guinea Pig Ileum
Male Dunkin Hartley guinea pigs (200-300 g) were used. The small intestine was rapidly removed (cut ˜5 cm from caecum and 5 cm from stomach) and placed in ice-cold 20 mM Hepes-NaOH buffer (pH7.4 at 21±3° C.). The tissue was cut into ˜10 cm segments, flushed through with ice-cold 20 mM Hepes-NaOH buffer and placed in a beaker containing fresh buffer at 4° C. 10 cm segments of ileum were threaded onto a glass pipette and the longitudinal muscle myenteric plexus was peeled away from the circular muscle using damp cotton-wool. […]
Guinea pig ileum longitudinal muscle myenteric plexus membranes (400μl) were incubated for 165 min at 21±3° C. in a final volume of 500 μl with 20 mM Hepes-NaOH buffer containing [^3H]-R-α-methylhistamine (50 μl; 3 nM) and competing compound. […] The filters were washed (3×3 ml) with ice-cold 50 mM Tris-HCl (pH6.9 at 21±3° C.), transferred into scintillation vials, 5 ml liquid scintillation cocktail was added and after 4 hours the bound radioactivity was determined by counting (4 min) in a Beckman liquid scintillation counter.
Data are analysed using GraphPad prism and the general equation for a competition curve with variable Hill slope (nH). […]
KD is the equilibrium dissociation constant for the radioligand determined by saturation experiments. […]

T1 sequence (Q9JI35 whole entry): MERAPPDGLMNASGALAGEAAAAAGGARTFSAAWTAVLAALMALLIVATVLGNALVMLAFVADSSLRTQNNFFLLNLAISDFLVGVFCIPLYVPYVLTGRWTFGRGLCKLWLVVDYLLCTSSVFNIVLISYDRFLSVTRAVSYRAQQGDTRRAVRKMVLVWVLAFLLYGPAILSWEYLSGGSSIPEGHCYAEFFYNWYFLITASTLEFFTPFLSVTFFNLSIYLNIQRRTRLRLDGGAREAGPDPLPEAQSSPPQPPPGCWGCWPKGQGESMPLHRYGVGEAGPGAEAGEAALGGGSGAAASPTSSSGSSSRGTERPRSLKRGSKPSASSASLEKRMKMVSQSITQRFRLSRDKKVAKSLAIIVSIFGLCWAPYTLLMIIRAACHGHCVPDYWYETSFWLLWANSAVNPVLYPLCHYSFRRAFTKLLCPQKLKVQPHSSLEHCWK

Ki [nM]	Compound
141	O=S(=O)(Cc1ccc(Cl)cc1)NCc1ccc(Cc2c[nH]cn2)cc1 [Example 2, C-(4-Chlorophenyl)-N-[4-(1H-imidazol-4-ylmethyl)-benzyl]-methanesulfonamide]
339	O=S(=O)(NCc1ccc(Cc2c[nH]cn2)cc1)c1ccc2ccccc2c1 [Example 1]

Molecular target: T1, Histamine H3 receptor
Test: Histamine H3 Radioligand Binding Assay - Guinea Pig Cortex ([3H]-R-α-methylhistamine)
Design: The cortex was dissected, weighed and homogenised in ice-cold 20 mM Hepes-NaOH buffer; from tissue; host or cells: guinea pig brain cortex membranes
Conditions: guinea pig cortex membranes; 0.1 nM [3H]-R-α-methylhistamine; typical variance ±0.12 log units; read-out: pKI (binding assay) - cortex (converted)
Method: Histamine H3 Radioligand Binding Assay—Guinea Pig Cortex
Male Dunkin Hartley guinea pigs (200-300 g) were used. The whole brain was removed and immediately placed in ice-cold 20 mM Hepes-NaOH buffer (pH7.4 at 21±3° C.). The cortex was dissected, weighed and homogenised in ice-cold 20 mM Hepes-NaOH buffer (pH7.4 at 21±3° C.) (50 ml/guinea-pig cortex) using a polytron (Kinematica AG, PT-DA 3020/2TS, 3×3s). The homogenate was centrifuged at 100×g for 5 min and the supernatants pooled and stored at 4° C. The pellets were rehomogenised in fresh ice-cold buffer (80 ml) and recentrifuged (100×g for 5 min). The supernatants were pooled and pellets rehomogenised and recentrifuged (100×g for 5 min). All supernatants were pooled and centrifuged at 39,800×g for 12 min at 4° C. The final pellet was resuspended in 20 mM Hepes-NaOH buffer (pH7.4 at 21±3° C.) to a tissue concentration of 7.5 mg.ml^−1, using a teflon-in-glass homogeniser.
Incubation Conditions and Data Analysis
These were essentially identical to those used for the guinea pig ileum myenteric plexus assay described above, except that the final assay concentration of [^3H]-R-α-methylhistamine was 0.1 nM. Typical variance in this binding assay is ±0.12 log units.

Compound	Ki [nM]
O=S(=O)(NCc1ccc(Cl)cc1)NCc1ccc(Cc2c[nH]cn2)cc1 [Example 3, N-(4-Chloro-benzyl)-N′-[4-(1H-imidazol-4-ylmethyl)-benzyl]-sulfamide]	15.8
O=S(=O)(Cc1ccc(Cl)cc1)NCc1cccc(Cc2c[nH]cn2)c1 [Example 6, C-(4-Chloro-phenyl)-N-[3-(1H-imidazol-4-ylmethyl)-benzyl]-methanesulfonamide]	372
O=S(=O)(NCc1ccc(Cc2c[nH]cn2)cc1)c1ccc2ccccc2c1 [Example 1]	324
O=S(=O)(Cc1ccc(Cl)cc1)Nc1ccc(-c2c[nH]cn2)cc1 [Example 5, C-(4-Chloro-phenyl)-N-[4-(1H-imidazol-4-yl)-pheriyl]-methanesulfonamide]	1410
O=S(=O)(Cc1ccc(Cl)cc1)Nc1ccc(Cc2c[nH]cn2)cc1 [Example 4, C-(4-Chloro-phenyl)-N-[4-(1H-imidazol-4-ylmelhyl)-phenyl]-methanesulfonamide]	93.3

Second part, the molecule after the results:

Ki [nM]	Compound
28.8	O=S(=O)(Cc1ccc(Cl)cc1)NCc1ccc(Cc2c[nH]cn2)cc1 [Example 2, C-(4-Chlorophenyl)-N-[4-(1H-imidazol-4-ylmethyl)-benzyl]-methanesulfonamide]
288	O=S(=O)(Cc1ccc(Cl)cc1)NCCc1ccc(Cc2c[nH]cn2)cc1 [Example 7, C-(4-Chloro-phenyl)-N-{2-[4-(1H-imidazol-4-ylmethyl)-phenyl]-ethyl}-methanesulfonamide]

Molecular target: T1, Histamine H3 receptor
Test: ileal longitudinal muscle, myenteric plexus functional assay (shift of R-(α)-methylhistamine E/[A] curves, Schild)
Format: cell-based
Design: the longitudinal muscle layer and adhering myenteric plexus was teased away; from tissue; host or cells: guinea pig ileal longitudinal muscle with myenteric plexus
Conditions: guinea pig ileum longitudinal muscle myenteric plexus, electrically stimulated; antagonism of R-(α)-methylhistamine; typical variance ±0.15 log units; read-out: pKB (functional assay) - ileum (converted)
Method: The biological activity of the compounds of the examples was measured using the ileal longitudinal muscle, myenteric plexus assay described by Paton and Aboo Zar (J. Physiol. 1968, 194, 13-33). Male Dunkin-Hartley guinea pigs (250-300 g) were employed. Briefly, a 50 cm portion of ileum proximal to the caecum was removed, after discarding the terminal 20 cm. Ileal segments (3 cm) were cleaned by passing Krebs-Henseleit buffer containing 3 μM mepyramine gently through the ileum using a Pasteur pipette (size: 13.8 cm length, 0.65 cm diameter). To avoid unnecessary damage to the tissue, Krebs-Henseleit buffer was passed through the ileal segment, while it was lying horizontally on a petri dish. Therefore, the ileum was not over-distended and the buffer flowed through with ease. Each segment was then passed over a Pasteur pipette and the longitudinal muscle layer and adhering myenteric plexus was teased away using moist cotton wool, by stroking tangentially away from the mesenteric attachment. The tissues were suspended in 20 ml organ baths containing Krebs-Henseleit buffer at 37±1° C. and gassed with 95% CO2/5% O2. The tissues were ligated to two parallel stainless steel wires, situated between two platinum electrodes (0.76 cm length, 0.06 cm diameter). All measurements were recorded isometrically (Grass FTO3 transducer). Following an initial loading tension of 1 g, the tissues were stimulated with electrical pulses at a frequency of 0.1 Hz and a pulse duration of 0.5 msec, as described by Kosterlitz & Watt (Br. J. Pharmacol. 1968, 266-276). Initially, the tissues were stimulated at supramaximal (1.3 fold times maximal) voltage for a period of 30 min and then the tissues were washed and re-stimulated. A “sighter dose” of the selective histamine H3-receptor agonist, R-(α)-methylhistamine (0.3 μM) (Arrang et al. Nature, 1987, 117-123), was administered. Upon generation of response, the “sighter dose” was removed from the tissues by “washout” (6 washes over 60 min) and during this period the electrical stimulation was switched off. The tissues were then re-stimulated and allowed to stabilise prior to the addition of drug treatments, which were allocated on a randomised block basis to the organ baths. Following the incubation period, a single cumulative E/[A] curve was obtained. The experimental E/[A] curve data was expressed as the percentage inhibition of the peak height of electrically-stimulated contraction. Antagonist affinity values were calculated from the degree of rightward shift of the R-(α)-methylhistamine E/[A] curves using Schild's methods (Arunlakshana & Schild Br. J. Pharmacol. 1959, 48-58). Typical variance in this assay is ±0.15 log units.

Compound	Kb [nM]
O=S(=O)(NCc1ccc(Cl)cc1)NCc1ccc(Cc2c[nH]cn2)cc1 [Example 3, N-(4-Chloro-benzyl)-N′-[4-(1H-imidazol-4-ylmethyl)-benzyl]-sulfamide]	112
O=S(=O)(NCc1ccc(Cc2c[nH]cn2)cc1)c1ccc2ccccc2c1 [Example 1]	229
O=S(=O)(Cc1ccc(Cl)cc1)Nc1ccc(Cc2c[nH]cn2)cc1 [Example 4, C-(4-Chloro-phenyl)-N-[4-(1H-imidazol-4-ylmelhyl)-phenyl]-methanesulfonamide]	407

Further lines, results first:

Kb [nM]	Compound
70.8	O=S(=O)(Cc1ccc(Cl)cc1)NCc1ccc(Cc2c[nH]cn2)cc1 [Example 2, C-(4-Chlorophenyl)-N-[4-(1H-imidazol-4-ylmethyl)-benzyl]-methanesulfonamide]
955	O=S(=O)(Cc1ccc(Cl)cc1)NCCc1ccc(Cc2c[nH]cn2)cc1 [Example 7, C-(4-Chloro-phenyl)-N-{2-[4-(1H-imidazol-4-ylmethyl)-phenyl]-ethyl}-methanesulfonamide]

Reference: patent US6407132B1, “Substituted imidazole derivatives and their use as histamine H3 receptor ligands” (James Black Foundation Limited, priority 1997, dated 2002)
